From article doi:10.1101/2021.11.01.466777v1 (bioRxiv, 2021)
Starred links: 1 amine or outer side, 2 acyl side, 3 side chain; linkers in the order of their positions; H or OH if unused. Positions of bridges follow the written chain, without caps; N, C: chain ends. Non-standard residues stand in square brackets, D forms with d. Residues, ends and D or L forms follow the SMILES beside them. *: point of attachment. dAsp(3R-OH) = N[C@@H](C(=O)O)[C@@H](O)C(=O)O; X1 = NC[C@H](O)[C@@H](N[*:1])C(=O)[*:2]; X2 = CCC(C)(O)[C@H](N[*:1])C(=O)[*:2]; d(aIle) = CC[C@H](C)[C@@H](N)C(=O)O; d(aThr) = C[C@@H](O)[C@@H](N)C(=O)O; Myristoyl = CCCCCCCCCCCCCC(=O)*; dOrn = NCCC[C@@H](N)C(=O)O; hSer = N[C@@H](CCO)C(=O)O

Legend:
[1] = Pharmacokinetics after IV slow bolus in uninfected mice; assay type: in vivo, mouse (female BALB/c); conditions: 5 mg/kg IV; for Plasma concentration, Mean: mean of n = 3
[2] = tested on: neutropenic female BALB/c mice; assay: Toxicity and Maximum Tolerated Dose; assay type: in vivo, mouse
[3] = human volunteers; no reference given; cited from earlier work

## CCCCCCCCCCCCCC(=O)N[C@H](CCCN)C(=O)N[C@@H](CO)C(=O)N[C@H](C(=O)N[C@@H](C(=O)N[C@@H](C(=O)N[C@H]1C(=O)NCC(=O)N[C@@H](C(C)(O)CC)C(=O)N[C@H]([C@@H](C)CC)C(=O)N[C@@H](CCO)C(=O)N[C@@H](C)C(=O)N[C@H]([C@@H](C)CC)C(=O)N[C@@H](CCC(=O)O)C(=O)O[C@@H]1C)[C@@H](O)CN)[C@@H](O)C(=O)O)C(C)C (stereo partly drawn) [turnercyclamycin A] (Myristoyl-[dOrn]SV[dAsp(3R-OH)][X1][d(aThr)]G[X2][d(aIle)][hSer]A[d(aIle)]E; ester 6-C)
[1]; 0.05 h
  Plasma concentration, Mean: 53333 ng/mL
[1]; 0.05 h, sample 1, LC-MS/MS
  Sample concentration in plasma: 52235 ng/mL
[1]; 0.05 h, sample 2, LC-MS/MS
  Sample concentration in plasma: 51887 ng/mL
[1]; 0.05 h, sample 3, LC-MS/MS
  Sample concentration in plasma: 55877 ng/mL
[1]; 0.167 h
  Plasma concentration, Mean: 38646 ng/mL
[1]; 0.167 h, sample 1, LC-MS/MS
  Sample concentration in plasma: 36107 ng/mL
[1]; 0.167 h, sample 2, LC-MS/MS
  Sample concentration in plasma: 38906 ng/mL
[1]; 0.167 h, sample 3, LC-MS/MS
  Sample concentration in plasma: 40924 ng/mL
[1]; 1 h
  Plasma concentration, Mean: 29269 ng/mL
[1]; 1 h, sample 1, LC-MS/MS
  Sample concentration in plasma: 24635 ng/mL
[1]; 1 h, sample 3, LC-MS/MS
  Sample concentration in plasma: 29337 ng/mL
[1]; 2 h
  Plasma concentration, Mean: 26200 ng/mL
[1]; 2 h, sample 1, LC-MS/MS
  Sample concentration in plasma: 26373 ng/mL
[1]; 2 h, sample 2, LC-MS/MS
  Sample concentration in plasma: 25446 ng/mL
[1]; 2 h, sample 3, LC-MS/MS
  Sample concentration in plasma: 26782 ng/mL
[1]; 4 h
  Plasma concentration, Mean: 22542 ng/mL
[1]; 4 h, sample 1, LC-MS/MS
  Sample concentration in plasma: 22923 ng/mL
[1]; 4 h, sample 2, LC-MS/MS
  Sample concentration in plasma: 22209 ng/mL
[1]; 4 h, sample 3, LC-MS/MS
  Sample concentration in plasma: 22495 ng/mL
[1]; 8 h
  Plasma concentration, Mean: 11971 ng/mL
[1]; 8 h, sample 1, LC-MS/MS
  Sample concentration in plasma: 11661 ng/mL
[1]; 8 h, sample 2, LC-MS/MS
  Sample concentration in plasma: 13130 ng/mL
[1]; 8 h, sample 3, LC-MS/MS
  Sample concentration in plasma: 11123 ng/mL
[1]; 24 h
  Plasma concentration, Mean: 931 ng/mL
[1]; 24 h, sample 1, LC-MS/MS
  Sample concentration in plasma: 974 ng/mL
[1]; 24 h, sample 2, LC-MS/MS
  Sample concentration in plasma: 764 ng/mL
[1]; 24 h, sample 3, LC-MS/MS
  Sample concentration in plasma: 1054 ng/mL
[1]; mouse plasma, NCA
  CL: 0.29 mL/min/kg
[1]; time printed 0 h, sample 1, LC-MS/MS
  Sample concentration in plasma: 34373 ng/mL
[1]; time printed 0 h, sample 2, LC-MS/MS
  Sample concentration in plasma: 31954 ng/mL
[1]; time printed 0 h, sample 3, LC-MS/MS
  Sample concentration in plasma: 34645 ng/mL
[2]; 25 mg/kg (printed mg/mL) IV BID q12h, 24 hours after first treatment
  body weight change: no body weight drop was observed
[2]; 25 mg/kg (printed mg/mL) IV BID q12h, n = 3
  mortality: did not induce mortality in any mice
[2]; 25 mg/kg IV bid (q12h) x1, mouse No. 7, Day 0 (first)
  Body Weight: 17 g
[2]; 25 mg/kg IV bid (q12h) x1, mouse No. 7, Day 1
  Body Weight: 17 g
[2]; 25 mg/kg IV bid (q12h) x1, mouse No. 8, Day 0 (first)
  Body Weight: 17 g
[2]; 25 mg/kg IV bid (q12h) x1, mouse No. 8, Day 1
  Body Weight: 17 g
[2]; 50 mg/kg (printed mg/mL) IV BID q12h, 24 hours post-treatment
  body weight change: slight body weight losses were observed
[2]; 50 mg/kg (printed mg/mL) IV BID q12h, n = 3
  mortality: did not induce mortality in any mice
[2]; 50 mg/kg IV bid (q12h) x1, mouse No. 4, Day 0 (first)
  Body Weight: 16 g
[2]; 50 mg/kg IV bid (q12h) x1, mouse No. 4, Day 0 (second)
  Body Weight: 15 g
[2]; 50 mg/kg IV bid (q12h) x1, mouse No. 4, Day 1
  Body Weight: 15 g
[2]; 50 mg/kg IV bid (q12h) x1, mouse No. 5, Day 0 (first)
  Body Weight: 15 g
[2]; 50 mg/kg IV bid (q12h) x1, mouse No. 5, Day 1
  Body Weight: 14 g
[2]; 50 mg/kg IV bid (q12h) x1, mouse No. 6, Day 0 (first)
  Body Weight: 16 g
[2]; 50 mg/kg IV bid (q12h) x1, mouse No. 6, Day 0 (second)
  Body Weight: 16 g
[2]; 50 mg/kg IV bid (q12h) x1, mouse No. 6, Day 1
  Body Weight: 16 g
[2]; 100 mg/kg IV
  mortality: fatal in the first mouse
[2]; mice, IV BID q12h
  well tolerated dose: up to 25 mg/kg
[2]; neutropenic female BALB/c mice, IV BID q12h, n = 3 per dose
  Maximum Tolerated Dose (MTD): 25 mg/kg

## daptomycin
[3]
  volume of distribution: 0.1 L/kg
